In publication PMC4674085, “Towards Prebiotic Catalytic Amyloids Using High Throughput Screening” (PLoS ONE, 2015):

How the values were obtained:
[1] = Aggregation at pH 4 from soluble material left after 100,000 g centrifugation; assay type: physicochemical; conditions: 40 μM purified peptide, pH 4, soluble material in supernatant of 100,000 g centrifugation
[2] = Activity screen of the amyloid library, 4NPA hydrolysis in plate reader (Fig 1); assay type: biochemical; conditions: for hydrolytic activity in the screen: condition 2: pH 7.3 with ZnCl2, 40 μM crude peptide, 250 μM zinc(II), A400
Protocol: The most common assay for hydrolytic activity in enzymes is with the chromogenic substrate p-nitrophenyl acetate (4NPA). Therefore, 4NPA was chosen permitting a direct comparison of the hits from the screen with natural enzymes. Using an absorbance plate reader, we screened the activity of the amyloid library at a peptide concentration of 40 μM, fibrillized at pH 4 or 7.3 and in the presence of divalent cations (250 μM Co^2+, Cu^2+, Mg^2+, Mn^2+, Ni^2+, or Zn^2+) (Fig 1). […] Imidazole is known to catalyze 4NPA hydrolysis under these conditions via an acyl intermediate and it was used as a standard to compare the measured activity of the peptides from plate to plate.
Fig 1 Activity screens of peptide amyloids in various conditions. The hydrolysis rates of 4NPA measured for each of the peptide amyloids (in columns) are shown as a ratio to the negative control (buffer) with color-codes as indicated at the bottom of the Figure. A color code from black (rate ratio of 1.0) to light blue (1.5) to red (19) is used. Activities below the negative control are indicated with smaller disks and color-coded from light grey to black. Occasionally observed negative reaction rates are indicated by small blue disks. The peptide amyloids were tested in a total of 46 conditions of which 19 conditions are shown here (in rows). The peptides are numbered according to Table 2, including a short nomenclature highlighting only the variable residues (e.g. the peptide Ac-YVDVHVSV-CONH2 is abbreviated DHS). The conditions are sorted top-down with the highest observed activity at the top. A detailed list of the conditions tested are shown in Table B in S1 File, while below a compressed introduction to the different conditions is listed: (2) pH 7.3 with ZnCl2 (control for 33 without heating), (33) condition 2 and heated to 95°C for 1 h prior to screening, (46) condition 2 and screened in 50% DMSO, (39) condition 2 and screened with 4.75 M NaCl, (40) condition 2 and screened with 0.2 M MgCl2, (45) condition 2 and screened in 90% EtOH, (38) condition 2 and screened with 0.2 M NaCl, (30) pH 7.3 with ZnCl2 and 1 M Na2SO4, (35) pH 7.3 and screened in 4.75 M NaCl, (34) pH 7.3 and screened in 0.5 M NaCl, (37) pH 7.3 and screened in 2 M MgCl2, (27) pH 7.3 with ZnCl2 and 0.2 M MgCl2, (6) pH 7.3 with NiCl2, (4) pH 7.3 with CoCl2, (1) pH 7.3 without other additives, (41) condition 2 and screened in 2 M MgCl2, (5) pH 7.3 with CuCl2, (36) pH 7.3 and screened in 0.2 M MgCl2 and (8) pH 4.0 without other additives.
The reaction buffer consisted of the same buffer as the fibrillization buffer without ZnCl2 and with 1.33 mM 4NPA prepared from a 100 mM stock in CH3CN. The samples of the amyloid library were mixed 1:3 with the reaction buffer yielding 40 μM peptide and, when present 250 μM zinc(II). The absorbance measurements were performed in a BMG Pherastar platereader with a 400 nm band-pass filter (10 nm bandwidth) in 96-well Nunclon Delta surface plates or 384-well Greiner Bio-One non-bind black μclear plates.
Table B: Amyloid growth and measurement conditions.
Growth = Measurement1 Growth⁄= Measurement1
Divalent2 pH3 T (◦C) Additive Divalent pH T (◦C) Additive
1. The conditions for ﬁbrillization and 4NPA assay are the same for 1-32 except that the 4NPA assay was always at 30 ◦C and the divalent concentration was one-fourth as high. For condition 33, the sample was heated to 95 ◦C for 1 hour prior to the 4NPA assay and for 34-46 the samples were ﬁbrillized in condition 1 or 2 and then transferred to the new conditions with additive just for the 4NPA assay.
2. Divalent concentration is 1 mM for growth and 250µM for 4NPA assay.
3. Grown and measured in 50 mM buﬀer: HEPES at pH 7.3, NaOAc at pH 4.0, or phthalate at pH 2.2.

[3] = X-ray fiber diffraction of aligned fibrils; assay type: physicochemical; conditions: washed pellets dried between glass capillaries, room temperature
Protocol: The samples were centrifuged, the pellet resuspended (ultrapure water or 10 mM NaOAc pH 4) and centrifuged again. The washed pellets were resuspended in a minimal amount of water and 4 μl of the suspension were pipetted between the melted ends of two glass capillaries, which were then left to dry overnight in a sealed petri dish. The dried material was placed in an X-ray beam (Rigaku MicroMax-007HF) at room temperature for a 20 min exposure and diffraction data was collected on a Mar345 image plate detector.
Table A and associated data: Biophysical characterization of library […]
1. Fold increase in ThT ﬂuorescence over background.
2. CD spectra classiﬁed as follows: (β+) has minimum near 217 nm, (β++) has minimum near 217 nm and a maximum near 197 nm, (−) signal too weak to interpret, (?) spectra not typical of any secondary […]
3. The peak position in amide I region is given in cm−1. […]
within the typical range of stretching frequencies forβ-structure (between dashed lines at 1638 cm−1 and […]
4. (+) ﬁbrils present or (−) absent in EM micrographs.
5. Diﬀraction images recorded for the aligned ﬁbrils of 5 diﬀerent peptides (see materials and methods).

X-ray diffraction of aligned fibrils [3]	Substance	hydrolytic activity in the screen [2]	also measured
	Ac-YVHVHVDV-NH2 [Peptide 21, Ac-YVHVHVDV-CONH2]		aggregation behaviour at pH 4 [1]: remained soluble for several days
	Ac-YVSVHVHV-NH2 [Peptide 9, Ac-YVSVHVHV-CONH2]	highest activity	
	Ac-YVDVHVDV-NH2 [Peptide 25, Ac-YVDVHVDV-CONH2]		relative activity in the screen in 50% DMSO ([2]; condition 46: fibrillized at pH 7.3 with ZnCl2, screened in 50% DMSO, also activity above positive control (200 μM imidazole)): increased relative activity compared to the same condition without DMSO
cross-β	Ac-YVHVHVHV-NH2 [Peptide 8, Ac-YVHVHVHV-CONH2]	highest activity	
	Ac-YVHVHVSV-NH2 [Peptide 11, Ac-YVHVHVSV-CONH2]	highest activity	
cross-β	Ac-YVAVHVHV-NH2 [Peptide 27, Ac-YVAVHVHV-CONH2]	highest activity	activity in the screen under extreme conditions ([2]; high organic solvent content (50% DMSO, 90% EtOH) or high salt (4.75 M NaCl, 1 M Na2SO4), with ZnCl2): often significant
